Test results from patent US5846720A, “Methods of determining chemicals that modulate expression of genes associated with cardiovascular disease” (Oncogene Science, Inc., priority 1996, dated 1998).
“Also recorded” adds a separate entry of the source. Where two headings read alike, the source gives them in different places.

Key:
G-CSF promoter [1] = assay: G-CSF promoter/luciferase reporter assay (high-throughput screen I), G21 cells; conditions: for activation of the G-CSF promoter (dose response): G21 cells; for EC50: read-out: ED50 (concentration of chemical resulting in 50% maximal stimulation), G-CSF reporter cell line G21, range over the three chemicals; for G-CSF promoter induction: G21, 7 hours, serum-free
G-CSF mRNA [2] = assay: Northern blot of endogenous G-CSF mRNA; assay type: cell-based, human; conditions: U5637 cells, relative to DMSO
Protocol: (§1) Total cellular RNA was isolated from cells following incubation with chemicals as described above and electrophoresed in a 1% Agarose Formaldehyde gel. The RNA was transferred to Duralon-UV nylon filters (Stratagene, La Jolla, Calif.) using the manufacturer's recommended protocol. The filters were prehybridized for 4 hours (prehybridizing solution=5× SSC, 50 mM sodium pyrophosphate, 10× Denhardt's solution, 10% dextran sulfate, 7% SDS and 250 μg/ml denatured ssDNA) and then hybridized in the same solution for 16 hours at 65° C. in the presence of specific probes. The G-CSF probe was a 0.6 kb AflII to Xhol fragment which contained most of exon 5 of the human G-CSF gene. The β-actin (Oncor, Gaithersburg, Md.) probe was used as a control probe to normalize for the total amount of RNA. The probes were labeled with alpha-32P dCTP using a random primed DNA labeling kit (Amersham, Arlington, Ill.). Following hybridization, filters were washed three times at room temperature with 1× SSC, 0.13% SDS and three times at 65° C. with 0.2× SSC, 0.1% SDS. Filters were first probed with the G-CSF specific probe and then reprobed with β-actin-probe. Exposure to x-ray film was performed overnight. Bands were excised and counted in a liquid scintillation counter (LKB, Gaithersburg, Md.), and counts obtained with the G-CSF specific probe were normalized relative to the counts obtained with the β-Actin specific probe.
Also shown are the effects of the solvent, DMSO, used to dissolve the chemicals and a proteinaceous positive regulator, interferon-gamma.

beta-actin mRNA = assay: Northern blot of actin mRNA (control); assay type: cell-based, human; conditions: U5637 cells
Protocol: as §1, with “β-actin-probe. […]” for “β-actin-probe. Exposure to x-ray film was performed overnight.”, “probe. […]” for “probe.”

G-CSF mRNA [3] = assay: S1 nuclease protection, G-CSF mRNA; assay type: cell-based, human; conditions: for amount of G-CSF mRNA (S1 nuclease protection): 5637 cells, 18 hours
Protocol: (§2) S1 Nuclease protection assays were carried out as described in reference 118.
(§3) To further confirm, that compounds that had been identified in a luciferase expression assay using a G-CSF specific reporter cell line would be active in inducing transcription of the endogenous G-CSF gene, cells from the parental cell line 5637 used to construct the reporter cell line were incubated with cycloheximide (25 ug/ml), DMSO (0.5%,solvent control) and low, medium and high concentrations of the compounds 542 (10, 50, 250 μM),1255 (20, 100, 500 uM), 1793(0.25, 1.2, 6.25 μM) and 1904 (20, 100 uM) for 18 hours. RNA was extracted and the concentration of G-CSF, GM-CSF and gamma-actin mRNA was determined by the S1 protection method as described in above. The positions of G-CSF GM-CSF and gamma-actin specific protected fragments are indicated (G, GM, A) at the left side of the gel (FIG. 37).

[4] = system: 5637 bladder carcinoma cells; assay: G-CSF secretion, two-antibody sandwich immunoassay; assay type: cell-based, human; conditions: 48 hours, serum-containing media
Protocol: Supernatants from 5637 bladder carcinoma cells incubated with chemicals registering as positives in the G-CSF promoter/luciferase high throughput assay were assayed for secreted G-CSF protein using the two-antibody sandwich immunoassay (83). The G-CSF Assay kit manufactured by Oncogene Science, Inc. was used and the manufacturer's instructions were followed.
The levels of G-CSF in the cell supernatants were determined by a sandwich-antibody assay as described in above (FIG. 42).

GM-CSF mRNA = assay: S1 nuclease protection, GM-CSF mRNA; assay type: cell-based, human; conditions: 5637 cells, 18 hours
Protocol: as §2, §3

GM-CSF promoter = assay: GM-CSF promoter/luciferase induction by known inducers, GM1073, GM1088, GM1105; assay type: cell-based, human
Protocol: 6 clones generated by electroporation of U5637 cells with pGMLL103 NEO3 (FIG. 26) were subjected to further analysis as described above for G-CSF: --GM1073 (10 μg; circular); GM1081, GM1088 and GM1090 (5 μg; linear); and GM1098 and GM1105 (10 μg; linear). Clone GM1073 was selected for use in the high throughput screen.
(§4) Promoter induction experiments were also conducted with the GM-CSF reporter cell lines GM1073, GM1088 and GM1105, which were all shown to contain correctly inserted constructs (see above). […] Luciferase expression of clones GM1088 and GM1105 was induced by PMA 2.8 fold and 2 fold, respectively, while TNF-alpha induced both clones 2 fold. All three M-CSF clones responded to a 16-hour incubation with 2,000 units/ml Interferon-gamma by a 20-fold increase of luciferase expression from the M-CSF promoter.

G-CSF promoter [5] = assay: G-CSF promoter/luciferase induction by known inducers, clone G1002; assay type: cell-based, human; conditions: for fold induction at 0.02 µg/mL: Homo sapiens, read-out: G-CSF promoter induction
Protocol: U5637 bladder carcinoma cells were transfected with pGVU150 (FIG. 21) or pGVU140 plus pTKNeo3 either by electroporation using a BRL (Gaithersburg, Md.) Cellporator electroporation device or by lipofection using BRL lipofectin and following the manufacturer's protocol. Clones were analyzed for luciferase expression and those testing positive expanded further and frozen in liquid nitrogen. Further analysis of 6 clones (G1002, G2005, G2071, G2085, G3014, G3031) included Southern blotting, reaction to known inducers, satisfactory attachment to microtiter plates and acceptable standard deviation in multiple luciferase expression assays. Clone G1002 was selected for use in the high throughput screen.
Cell clones with correctly integrated promoter/reporter constructs were analyzed for correct reaction to known transcriptional inducers. […] Both TNF-alpha and PMA induction levels of clone G1002 were influenced by the presence or absence of epidermal growth factor (EGF). […] The 9.3 fold induction by PMA in the absence of EGF was reduced to 5.6 fold by including EGF in the serum-free incubation mixture. Similar differences were observed, when EGF was substituted by 10% fetal calf serum.

[6] = in vivo; cited from earlier work
HMGCoA reductase = conditions: animals, high doses; cited from earlier work
[7] = cited from earlier work; for decrease in serum cholesterol levels: compared with HMGCoA reductase inhibitors like lovastatin
M-CSF promoter = assay: M-CSF (CSF-1) promoter/luciferase induction, M2071, M2085, M2086; assay type: cell-based, human; conditions: 2,000 units/ml, 16 hours, all three M-CSF clones
Protocol: Human promyelocytic leukemia HL-60 cells are known to express CSF-1 (74). They were transfected with linearized pCSF1-102 (FIG. 21) and linearized PTKneo3 using electroporation as described above. Three neomycin resistant clones were generated: --M2071, M2085 and M2086. All three responded to a 16 hour incubation with 2000 units/ml interferon-gamma by a 20-fold increase of luciferase expression. M2086 was selected for use in the high throughput screen. The WI-38 human fibroblast cell line is also capable of producing CSF-1. Stable transfectants are also prepared from these for screening in a different cellular background. There is evidence for tissue-specific modulation of CSF-1 gene expression, and since the major source of the CSF-1 which stimulates the growth of macrophages at atherosclerotic plaques is unknown, screening with more than one cell line may be useful.
as §4

[8] = G1002, 7 hours, serum-free, absence of EGF

## CN(C)c1ccc(C(=C2C=CC(=[N+](C)C)C=C2)c2ccc([N+](C)(C)C)cc2)cc1 [#670]
G-CSF promoter [1]
  activation of the G-CSF promoter (dose response): specifically activated the G-CSF promoter
  EC50: 5 to 70 µM
G-CSF mRNA [2]
  effect on endogenous G-CSF mRNA (Northern blot): increased G-CSF mRNA production; also recorded: stimulated production of G-CSF mRNA
beta-actin mRNA
  effect on actin mRNA (Northern blot): not of actin mRNA

## Clc1cc(Cl)cc(Br)c1 [#1255]
G-CSF mRNA [3]
  amount of G-CSF mRNA (S1 nuclease protection): increased mRNA production
G-CSF mRNA [2]
  effect on endogenous G-CSF mRNA (Northern blot): increased G-CSF mRNA production; also recorded: stimulated production of G-CSF mRNA
beta-actin mRNA
  effect on actin mRNA (Northern blot): not of actin mRNA

## CN(C)c1ccc(C(=C2C=CC(=[N+](C)C)C=C2)c2ccc(N(C)C)cc2)cc1 [#1780]
G-CSF promoter [1]; 48 independent luciferase assays, same day
  scored as positive in repeat assays (G-CSF): scored as positives in every single one of these assays
G-CSF promoter [1]
  activation of the G-CSF promoter (dose response): specifically activated the G-CSF promoter
  EC50: 5 to 70 µM
G-CSF mRNA [3]; method not stated at the place
  levels of endogenous G-CSF mRNA: stimulate levels of endogenous G-CSF mRNA
[4]
  G-CSF secretion: increased G-CSF secretion

## CN(C)C(=S)SCC#N [#1793]
G-CSF mRNA [3]
  amount of G-CSF mRNA (S1 nuclease protection): increased mRNA production
GM-CSF mRNA
  amount of GM-CSF mRNA (S1 nuclease protection): increased the amount of GM-CSF mRNA

## CCCCCCCCCCCCCC(=O)O[C@@H]1[C@@H](C)[C@@]2(O)[C@@H](C=C(CO)C[C@]3(O)C(=O)C(C)=C[C@@H]23)[C@@H]2C(C)(C)[C@]12OC(C)=O [PMA, phorbol-myristate-acetate, reference compound]
G-CSF promoter [1]; absence of EGF
  G-CSF promoter induction: 34.6 fold
G-CSF promoter [1]; presence of EGF
  G-CSF promoter induction: 24.6 fold
GM-CSF promoter; GM1073, serum-free media
  GM-CSF promoter induction: 7.5 fold
GM-CSF promoter; Homo sapiens, GM1073, 20 ng/ml, 10.5 hours, serum-containing media
  fold induction at 0.02 µg/mL: 3.4
GM-CSF promoter; clone GM1088
  GM-CSF promoter induction: 2.8 fold
GM-CSF promoter; clone GM1105
  GM-CSF promoter induction: 2 fold
G-CSF promoter [5]; [8]
  G-CSF promoter induction: 9.3 fold
G-CSF promoter [5]; 7 h
  fold induction at 0.02 µg/mL: 5.6
G-CSF promoter [5]; 10.5 h
  fold induction at 0.02 µg/mL: 4.4

## CC[C@H](C)C(=O)O[C@H]1C[C@@H](C)C=C2C=C[C@H](C)[C@H](CC[C@@H]3C[C@@H](O)CC(=O)O3)[C@H]21 [lovastatin]
[6]
  most frequently reported side effects: Gastrointestinal disturbances, including flatulence, diarrhea, constipation and nausea

## CC[C@H](C)C(=O)O[C@H]1C[C@@H](C)C=C2C=C[C@H](C)[C@H](CC[C@@H]3C[C@@H](O)CC(=O)O3)[C@H]21 [mevinolin]
HMGCoA reductase
  HMGCoA reductase levels: increased levels of HMGCoA reductase

## GM-CSF: colony-stimulating factor GM-CSF
[7]
  decrease in serum cholesterol levels: profound decreases in serum cholesterol levels
[7]; in vivo
  average decrease in serum cholesterol: 37%

## Interferon-gamma: a proteinaceous positive regulator, interferon-gamma
M-CSF promoter
  increase of luciferase expression from the M-CSF promoter: 20 fold
G-CSF mRNA [2]
  effect on endogenous G-CSF mRNA (Northern blot): increased G-CSF mRNA production

## TNF-alpha
G-CSF promoter [1]; absence of EGF
  G-CSF promoter induction: 2.1 fold
G-CSF promoter [1]; presence of EGF
  G-CSF promoter induction: 2.8 fold
GM-CSF promoter; clone GM1088
  GM-CSF promoter induction: 2 fold
GM-CSF promoter; clone GM1105
  GM-CSF promoter induction: 2 fold
G-CSF promoter [5]; G1002, 8.3 ng/ml, 10.5 hours, serum-containing media
  G-CSF promoter induction: 2 fold
G-CSF promoter [5]; G1002, 7 hours, serum-free defined media with 20 ng/ml EGF
  G-CSF promoter induction: 3 fold
G-CSF promoter [5]; [8]
  G-CSF promoter induction: 4 fold
[4]
  G-CSF secretion: increased G-CSF secretion

B1: CSF-1: colony-stimulating factor-1 (protein, UniProt P09603 33-554, looked up)
Macrophage colony-stimulating …: EEVSEYCSHMIGSGHLQSLQRLIDSQMETSCQITFEFVDQEQLKDPVCYLKKAFLLVQDIMEDTMRFRDNTPNAIAIVQLQELSLRLKSCFTKDYEEHDKACVRTFYETPLQLLEKVKNVFNETKNLLDKDWNIFSKNCNNSFAECSSQDVVTKPDCNCLYPKAIPSSDPASVSPHQPLAPSMAPVAGLTWEDSEGTEGSSLLPGEQPLHTVDPGSAKQRPPRSTCQSFEPPETPVVKDSTIGGSPQPRPSVGAFNPGMEDILDSAMGTNWVPEEASGEASEIPVPQGTELSPSRPGGGSMQTEPARPSNFLSASSPLPASAKGQQPADVTGTALPRVGPVRPTGQDWNHTPQKTDHPSALLRDPPEPGSPRISSLRPQGLSNPSTLSAQPQLSRSHSSGSVLPLGELEGRRSTRDRRSPAEPEGGPASEGAARPLPRFNSVPLTDTGHERQSEGSFSPQLQESVFHLLVPSVILVLLAVGGLLFYRWRRRSHQEPQRADSPLEQPEGSPLTQDDRQVELPV
[7]
  decrease in serum cholesterol levels: profound decreases in serum cholesterol levels
